Assay results as given in article PMC10472371, “Discovery of E2730, a novel selective uncompetitive GAT1 inhibitor, as a candidate for anti‐seizure medication” (Epilepsia Open, 2023).
Read-outs that look alike come from different tables or passages of the source. Marks after values point to notes of the source that are not given here.

Tests used:
corneal kindling mice = details: cited from earlier work
hNav1.2 = target: T1, hNav1.2 (Homo sapiens, UniProt Q99250); assay: Veratridine-induced hNav1.2 activation in CHO cells, membrane potential assay; assay type: cell-based; details: veratridine 50 μM
T1 construct: expressed in transfected cells; host or cells: CHO
T1 sequence (Q99250 whole entry): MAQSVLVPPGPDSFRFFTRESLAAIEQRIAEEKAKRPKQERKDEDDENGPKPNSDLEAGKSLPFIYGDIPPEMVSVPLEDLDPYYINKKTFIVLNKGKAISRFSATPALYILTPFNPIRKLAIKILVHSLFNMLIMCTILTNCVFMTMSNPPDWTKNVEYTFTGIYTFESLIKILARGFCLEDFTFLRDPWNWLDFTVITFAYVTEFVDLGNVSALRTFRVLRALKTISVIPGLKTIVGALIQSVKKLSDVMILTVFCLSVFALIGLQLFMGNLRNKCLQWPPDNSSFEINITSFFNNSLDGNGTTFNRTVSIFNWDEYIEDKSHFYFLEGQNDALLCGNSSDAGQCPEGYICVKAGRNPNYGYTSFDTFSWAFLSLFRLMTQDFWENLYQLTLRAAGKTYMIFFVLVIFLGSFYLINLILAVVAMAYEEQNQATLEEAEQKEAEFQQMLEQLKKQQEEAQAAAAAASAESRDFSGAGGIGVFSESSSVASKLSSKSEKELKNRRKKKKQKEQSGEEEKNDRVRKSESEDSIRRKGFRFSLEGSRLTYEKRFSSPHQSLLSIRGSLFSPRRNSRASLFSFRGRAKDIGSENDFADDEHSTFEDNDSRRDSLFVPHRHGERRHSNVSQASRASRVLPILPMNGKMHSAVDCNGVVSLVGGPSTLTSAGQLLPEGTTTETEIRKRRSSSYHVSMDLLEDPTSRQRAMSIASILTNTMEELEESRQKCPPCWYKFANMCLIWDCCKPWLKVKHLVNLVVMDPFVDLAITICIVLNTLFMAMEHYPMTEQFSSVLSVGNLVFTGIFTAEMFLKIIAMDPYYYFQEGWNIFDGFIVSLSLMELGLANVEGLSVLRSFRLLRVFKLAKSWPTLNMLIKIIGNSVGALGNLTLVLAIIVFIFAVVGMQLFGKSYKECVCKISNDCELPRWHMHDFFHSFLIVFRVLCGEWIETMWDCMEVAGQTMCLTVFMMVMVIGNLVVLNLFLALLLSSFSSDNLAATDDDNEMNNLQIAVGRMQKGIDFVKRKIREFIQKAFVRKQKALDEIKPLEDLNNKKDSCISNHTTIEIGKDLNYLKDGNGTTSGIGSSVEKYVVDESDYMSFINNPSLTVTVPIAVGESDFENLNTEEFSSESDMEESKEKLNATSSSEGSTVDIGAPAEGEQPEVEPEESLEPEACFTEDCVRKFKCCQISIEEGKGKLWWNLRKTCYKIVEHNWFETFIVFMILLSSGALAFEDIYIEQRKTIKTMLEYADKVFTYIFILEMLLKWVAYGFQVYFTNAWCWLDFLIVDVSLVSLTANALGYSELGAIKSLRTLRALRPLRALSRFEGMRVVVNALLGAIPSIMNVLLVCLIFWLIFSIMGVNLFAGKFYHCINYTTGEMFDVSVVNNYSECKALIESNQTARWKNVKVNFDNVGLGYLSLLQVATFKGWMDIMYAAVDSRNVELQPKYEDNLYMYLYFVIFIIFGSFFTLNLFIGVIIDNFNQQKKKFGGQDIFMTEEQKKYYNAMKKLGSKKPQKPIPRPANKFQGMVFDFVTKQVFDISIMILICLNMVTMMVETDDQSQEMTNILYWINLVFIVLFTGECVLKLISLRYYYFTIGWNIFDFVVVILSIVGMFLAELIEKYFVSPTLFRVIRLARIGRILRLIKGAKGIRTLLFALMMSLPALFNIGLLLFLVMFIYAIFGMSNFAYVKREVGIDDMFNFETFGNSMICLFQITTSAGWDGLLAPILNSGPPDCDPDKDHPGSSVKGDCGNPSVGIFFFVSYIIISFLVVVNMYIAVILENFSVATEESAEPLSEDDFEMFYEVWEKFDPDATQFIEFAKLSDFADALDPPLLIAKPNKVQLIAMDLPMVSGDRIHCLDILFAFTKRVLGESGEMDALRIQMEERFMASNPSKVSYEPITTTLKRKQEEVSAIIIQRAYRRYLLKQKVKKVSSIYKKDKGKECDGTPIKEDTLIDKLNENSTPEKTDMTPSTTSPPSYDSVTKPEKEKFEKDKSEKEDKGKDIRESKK
Description: Data represent the mean ± SEM of three independent experiments. Effects of E2730 and desipramine (Sigma-Aldrich, MO) on hNav1.2 activity were evaluated in CHO cells stably expressing hNav1.2 using a fluorescent-based membrane potential assay (Molecular Devices, CA). Activation of hNav1.2 was induced by veratridine (50 μM) and the change of fluorescence (excitation wavelength, 480 nm; emission wavelength, 540 nm) was recorded using Fluorescence Drug Screening System 6000 (Hamamatsu Photonics, Japan).

[1] = target: T2, hGABAAR (containing α1, β3, and γ2 subunits) (Homo sapiens, UniProt P14867+P18507+P28472); assay: GABA-induced current in hGABAAR-expressing HEK-293 cells, whole-cell patch-clamp; assay type: cell-based
T2 construct: expressed in transfected cells; host or cells: HEK-293
T2 sequence (P14867 28-456): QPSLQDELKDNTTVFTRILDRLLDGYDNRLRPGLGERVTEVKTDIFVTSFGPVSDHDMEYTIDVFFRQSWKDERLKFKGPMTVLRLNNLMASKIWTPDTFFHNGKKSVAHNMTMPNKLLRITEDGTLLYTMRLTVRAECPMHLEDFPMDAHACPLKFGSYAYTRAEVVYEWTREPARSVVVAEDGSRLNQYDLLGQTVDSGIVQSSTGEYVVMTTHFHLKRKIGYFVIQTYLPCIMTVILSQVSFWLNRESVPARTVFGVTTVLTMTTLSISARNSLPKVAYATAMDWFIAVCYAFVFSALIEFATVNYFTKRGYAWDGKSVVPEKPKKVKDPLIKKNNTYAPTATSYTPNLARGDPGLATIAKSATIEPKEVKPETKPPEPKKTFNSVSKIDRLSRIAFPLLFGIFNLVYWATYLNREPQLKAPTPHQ
T2 sequence (P28472 26-473): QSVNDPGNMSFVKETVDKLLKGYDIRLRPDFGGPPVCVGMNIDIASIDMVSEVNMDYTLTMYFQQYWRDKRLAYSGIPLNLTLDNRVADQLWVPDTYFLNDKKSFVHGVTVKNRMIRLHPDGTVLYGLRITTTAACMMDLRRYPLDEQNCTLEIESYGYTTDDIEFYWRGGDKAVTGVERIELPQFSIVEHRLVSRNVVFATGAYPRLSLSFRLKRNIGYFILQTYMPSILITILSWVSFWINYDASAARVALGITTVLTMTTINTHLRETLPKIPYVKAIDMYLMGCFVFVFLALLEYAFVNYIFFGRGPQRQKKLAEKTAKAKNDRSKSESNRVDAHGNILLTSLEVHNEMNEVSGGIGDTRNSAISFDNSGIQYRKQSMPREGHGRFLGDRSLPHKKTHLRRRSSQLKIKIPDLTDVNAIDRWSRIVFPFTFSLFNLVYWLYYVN
T2 sequence (P18507 40-475): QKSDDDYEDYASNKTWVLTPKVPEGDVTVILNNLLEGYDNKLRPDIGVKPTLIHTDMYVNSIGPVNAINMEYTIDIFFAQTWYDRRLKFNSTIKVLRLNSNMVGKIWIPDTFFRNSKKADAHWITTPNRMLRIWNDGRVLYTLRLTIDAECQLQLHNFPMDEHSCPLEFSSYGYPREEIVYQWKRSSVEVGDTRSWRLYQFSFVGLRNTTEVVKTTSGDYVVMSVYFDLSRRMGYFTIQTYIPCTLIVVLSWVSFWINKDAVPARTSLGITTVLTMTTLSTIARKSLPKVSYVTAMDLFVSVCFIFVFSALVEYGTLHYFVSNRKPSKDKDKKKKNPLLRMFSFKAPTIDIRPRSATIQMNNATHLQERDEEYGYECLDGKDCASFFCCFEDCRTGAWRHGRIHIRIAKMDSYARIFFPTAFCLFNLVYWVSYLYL
Description: Data represent the mean ± SEM of 3 independent experiments. Control response is GABA (13 μM)-induced current amplitude. […] Cells in voltage clamp were maintained at -80 mV throughout the experiments following the voltage protocol.

ddY mice = details: ref Levy et al.[39]; cited from earlier work
amygdala kindling rats = assay: Amygdala kindling in rats; assay type: in vivo, rat
Source text: A tripolar electrode was implanted into the basolateral amygdala of Wistar‐Kyoto rats (male, 7 weeks old; Charles River Laboratories Japan, Japan). After at least 5 days of recovery, the amygdala was stimulated using an electronic stimulator at currents starting at 0.04 mA (50 Hz, 1 millisecond monophasic square‐wave pulses, 1‐second duration each) then increasing by 25% to a 30‐second duration until the after‐discharge threshold (ADT) was attained. ADT was defined as the current at which abnormal electroencephalogram and at least Racine's stage‐1 seizure behavior were observed. In the Racine's stage, seizure severity was classified as: 1, mouth and facial movements; 2, head nodding; 3, forelimb clonus; 4, rearing; 5, rearing and falling. From the next day onwards, electrical stimulation at the previously determined ADT was performed once daily in each rat. The rats showing ≥3 consecutive Racine stage‐5 seizures were deemed epileptic and used for drug evaluation. The pre‐ADT (i.e. baseline) seizure threshold of each rat was established prior to drug administration. After >1 hour following the determination of pre‐ADT seizure threshold, E2730 (5–50 mg/kg), levetiracetam (25 mg/kg), or vehicle was orally administered to the rats. One hour after the administration, the post‐ADT seizure threshold of each rat was ascertained, and the ratios of post‐ADT to pre‐ADT readings were analyzed.

[2] = tested on: 6 Hz-44 mA psychomotor seizure mice; assay: Pharmaco-resistant 6 Hz-44 mA psychomotor seizures in mice; assay type: in vivo, mouse
Description: Psychomotor seizures were stimulated by applying currents (44 mA, 6 Hz, 0.2 millisecond rectangular pulse width, 3‐second duration each) via a corneal electrode (SEN‐7203; Nihon Kohden). E2730 (5–50 mg/kg), levetiracetam (Tokyo Chemical Industry; 20–200 mg/kg), or vehicle was orally administered to ddY mice (male, 5 weeks old; Japan SLC Inc.) 1 hour before electrostimulation. […] Behavioral seizures observed in mice were classified into the following four types: stun, forelimb clonus, twitching of the vibrissae, and Straub‐tail.

[3] = tested on: extracellular GABA concentration in mouse hippocampus; assay: Microdialysis: extracellular GABA concentration in mouse hippocampus; assay type: in vivo; details: mouse hippocampus, oral; E2730 10-100 mg/kg, tiagabine 3-30 mg/kg
Description: A guide cannula was implanted in the left hippocampus (2.7 mm posterior, 3.3 mm left, and 1.8 mm below from the bregma) of ddY mice (male, 5 weeks old). After 5–7 days of recovery, a microdialysis probe (Eicom) was inserted into the left hippocampus through the guide cannula. The tip of the microdialysis probe reached 4.8 mm below the bregma. The next day, the probe was connected to a perfusion tube and perfused with Ringer solution (containing 147.0 mM NaCl, 4.7 mM KCl, 0.6 mM MgSO4, 2.5 mM CaCl2, 5.0 mM HEPES, pH 7.4) at a flow rate of 1.5 μL/min. After ≥160 minutes of perfusion, collection of the perfusate (30 μL/20 min/fraction) was initiated, and 12 fractions per animal were collected for 240 minutes. E2730 (10–100 mg/kg), tiagabine (3–30 mg/kg), or vehicle was orally administered 72 minutes after initiating sample collection. Tiagabine was used as a reference ASM of a non‐competitive GAT1 inhibitor. Perfusate was switched from Ringer solution to high‐potassium Ringer solution (51.7 mM NaCl, 100.0 mM KCl, 0.6 mM MgSO4, 2.5 mM CaCl2, 5.0 mM HEPES, pH 7.4) after 127 minutes following the collection. GABA concentration in each sample was measured by a high‐performance liquid chromatography with tandem mass spectrometry method.

Compound: NC(=O)N1c2ccccc2C=Cc2ccccc21 [Carbamazepine, carbamazepine]
- ED50 (95% CI) in corneal kindling mice (corneal kindling mice; ref Matagne et al.[40]): 9 ^c (5, 11) mg/kg

Compound: O=C1CN=C(c2ccccc2Cl)c2cc([N+](=O)[O-])ccc2N1 [Clonazepam, clonazepam]
- ED50 (95% CI) in corneal kindling mice (corneal kindling mice; ref Matagne et al.[40]): 0.04 ^c (0.02, 0.07) mg/kg

Compound: CNCCCN1c2ccccc2CCc2ccccc21 [Desipramine, desipramine, reference compound]
- IC50 (hNav1.2): 4.9 µM

Compound: CN1C(=O)CN=C(c2ccccc2)c2cc(Cl)ccc21 [Diazepam, diazepam]
- Emax at 1 µM ([1]; HEK293, read-out: Emax, potentiation of GABA-induced current amplitude): 218%

Compound: CCC1(C)CC(=O)NC1=O (stereo not shown) [Ethosuximide, ethosuximide]
- ED50 (95% CI) in corneal kindling mice (corneal kindling mice; ref Matagne et al.[40]): >254 ^c mg/kg

Compound: CC[C@@H](C(N)=O)N1CCCC1=O [Levetiracetam, levetiracetam]
- ED50 (95% CI) in corneal kindling mice (corneal kindling mice; ref Matagne et al.[40]): 16 ^c (6, 43) mg/kg
- TD50 (95% CI) in mouse rotarod test (ddY mice): >500 ^b mg/kg
- post-ADT/pre-ADT ratio (amygdala kindling rats; levetiracetam 25 mg/kg oral): 127%
- Minimum effective dose, amygdala kindling (rat) (amygdala kindling rats; oral, footnote a: minimum effective dose): 25 mg/kg
- ED50 ([2]; Mus musculus, oral, 1 hour before electrostimulation, ddY mice, read-out: ED50 (95% CI), 6 Hz-44 mA psychomotor seizures): > 200 mg/kg
- anti-seizure efficacy in 6 Hz-44 mA psychomotor seizures ([2]; levetiracetam 20-200 mg/kg oral): did not show ≥50% efficacy

Compound: CCC1(c2ccccc2)C(=O)NC(=O)NC1=O [Phenobarbital, phenobarbital]
- ED50 (95% CI) in corneal kindling mice (corneal kindling mice; ref Matagne et al.[40]): 11 ^c (7, 15) mg/kg

Compound: Cc1ccsc1C(=CCCN1CCC[C@@H](C(=O)O)C1)c1sccc1C [Tiagabine, tiagabine, reference compound]
- EC50 ([1]; GABA 13 μM, -80 mV, read-out: EC50, potentiation of GABA-induced current amplitude): 4.8 µM
- Emax at 100 µM ([1]; HEK293, at 100 μM, control response GABA (13 μM)-induced current, read-out: Emax, potentiation of GABA-induced current amplitude): 153%
- ED50 (95% CI) in corneal kindling mice (corneal kindling mice; ref Madsen et al.[38]): 0.51 ^a mg/kg
- TD50 (95% CI) in mouse rotarod test (ddY mice): 1.29 ^b mg/kg
- effect on basal extracellular GABA concentration [3]: significantly increased
- effect on high-potassium-induced extracellular GABA concentration [3]: significantly increased

Compound: CCCC(CCC)C(=O)O [Valproate, valproate]
- ED50 (95% CI) in corneal kindling mice (corneal kindling mice; ref Matagne et al.[40]): 110 ^c (83, 143) mg/kg
